Values quoted from earlier work, collected in patent publication US10993934B2, “Topical compositions of dutasteride” (SHILPA MEDICARE LIMITED, priority 2017, dated 2021).

Assays:
[1] = orally administered

C[C@]12C=CC(=O)N[C@@H]1CC[C@@H]1[C@@H]2CC[C@]2(C)[C@@H](C(=O)Nc3cc(C(F)(F)F)ccc3C(F)(F)F)CC[C@@H]12 [Dutasteride, (5α,17β)-N-{2,5-bis(trifluoromethyl)phenyl}-3-oxo-4-azaandrost-1-ene-17-carboxamide]
Solubility in ethanol (ethanol): soluble
Solubility in methanol (methanol): soluble
Solubility in polyethylene glycol 400 (polyethylene glycol 400): soluble
Solubility in water (water): insoluble
Absolute bioavailability [1]: about 60%
Absolute bioavailability (range) ([1]; range in brackets): 40%-94%
